*1 amine or outer side, *2 acyl side, *3 side chain or, on linkers, in order; H or OH if unused. Where a SMILES comes first, the peptide text is derived from it. Side-chain parts run from the residue outwards. [ ]: non-standard residue; d: D form. The star is where a group is joined. γGlu = O=C(O)[C@H](CCC(=O)[*:2])N[*:1]; Stearoyl = CCCCCCCCCCCCCCCCCC(=O)*; Palmitoyl = CCCCCCCCCCCCCCCC(=O)*; PEG4 = NCCOCCOCCOCCOCCC(=O)O; Nle = CCCC[C@H](N)C(=O)O; AEEA = NCCOCCOCC(=O)O; Aib = CC(C)(N)C(=O)O
These compounds were tested against T1, RXFP1 (Homo sapiens, UniProt Q9HBX9) (assay: OVCAR5 cAMP assay (HTRF), RXFP1 agonist activity). Details: OVCAR-5; maximal cAMP relative to H2-relaxin maximum (100%); read-out: EMax, OVCAR 5 cells (cAMP).
T1 construct: OVCAR5 cells expressing endogenous RXFP1; endogenous in cells; host or cells: OVCAR5 cells
T1 sequence (Q9HBX9 1-757): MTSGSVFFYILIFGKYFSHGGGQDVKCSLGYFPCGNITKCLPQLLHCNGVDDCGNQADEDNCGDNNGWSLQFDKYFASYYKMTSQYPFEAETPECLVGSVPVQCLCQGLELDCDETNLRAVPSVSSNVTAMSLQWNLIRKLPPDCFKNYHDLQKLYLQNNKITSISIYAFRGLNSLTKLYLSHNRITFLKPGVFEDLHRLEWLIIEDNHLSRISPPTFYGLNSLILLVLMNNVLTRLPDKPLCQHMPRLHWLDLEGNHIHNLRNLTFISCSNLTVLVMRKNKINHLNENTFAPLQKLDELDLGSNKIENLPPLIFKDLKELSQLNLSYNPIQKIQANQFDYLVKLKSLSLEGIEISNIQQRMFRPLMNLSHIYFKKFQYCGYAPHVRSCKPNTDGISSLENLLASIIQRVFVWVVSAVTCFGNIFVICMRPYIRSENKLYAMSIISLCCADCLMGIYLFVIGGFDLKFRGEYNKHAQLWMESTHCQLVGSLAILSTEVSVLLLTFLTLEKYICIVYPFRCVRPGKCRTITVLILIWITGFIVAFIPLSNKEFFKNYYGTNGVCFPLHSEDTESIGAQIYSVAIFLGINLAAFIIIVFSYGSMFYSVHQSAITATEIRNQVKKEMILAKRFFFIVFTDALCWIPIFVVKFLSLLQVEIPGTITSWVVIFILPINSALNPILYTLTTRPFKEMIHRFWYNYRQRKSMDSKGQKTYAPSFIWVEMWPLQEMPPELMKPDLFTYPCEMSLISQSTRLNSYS
Format: cell-based
Method in brief: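 cAMP accumulation readout: after 1 mM IBMX for 40 min, endogenous-RXFP1 OVCAR5 cells got rising peptide concentrations without FCS, 30 min, 37° C, then lysis with HTRF cAMP reagents. Nonlinear regression gave EC50; Emax expressed relative to H2-relaxin maximum, same occasion.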
`CCCCCCCCCCCCCCCC(=O)N[C@@H](CCC(=O)NCCCC[C@H](NC(=O)CC[C@H](NC(=O)CC[C@H](NC(=O)COCCOCCNC(=O)COCCOCCNC(=O)COCCOCCNC(=O)COCCOCCNC(=O)[C@H](CCCCNC(C)=O)NC(=O)[C@H](CCCCN)NC(=O)[C@H](CCCNC(=N)N)NC(=O)C(C)(C)NC(=O)[C@H](CO)NC(=O)[C@H](Cc1c[nH]c2ccccc12)NC(=O)[C@@H](NC(=O)[C@H](CO)NC(=O)[C@H](CCCC)NC(=O)CNC(=O)[C@H](CCC(=O)O)NC(=O)C(C)(C)NC(=O)C(C)(C)NC(=O)[C@@H](NC(=O)[C@H](CCC(N)=O)NC(=O)[C@H](C)NC(=O)[C@H](CCCNC(=N)N)NC(=O)[C@@H](NC(=O)[C@H](CCCCN)NC(=O)[C@H](CCC(=O)O)NC(=O)[C@H](CCCNC(=N)N)NC(=O)CNC(=O)[C@H](CCC(=O)O)NC(=O)[C@H](CC(C)C)NC(C)=O)C(C)C)[C@@H](C)CC)[C@@H](C)O)C(=O)O)C(=O)O)C(N)=O)C(=O)O` [compound 121] (Ac-LEGREKVRAQI[Aib][Aib]EG[Nle]STWS[Aib]RKK(Ac)[AEEA][AEEA][AEEA][AEEA][γGlu][γGlu]K([γGlu-Palmitoyl])-NH2) was tested, and the Emax was 91%.
`CCCCCCCCCCCCCCCC(=O)N[C@@H](CCC(=O)NCCCC[C@H](NC(=O)CC[C@H](NC(=O)CC[C@H](NC(=O)COCCOCCNC(=O)COCCOCCNC(=O)[C@H](CCCCNC(C)=O)NC(=O)[C@H](CCCCN)NC(=O)[C@H](CCCNC(=N)N)NC(=O)C(C)(C)NC(=O)[C@H](CO)NC(=O)[C@H](Cc1c[nH]c2ccccc12)NC(=O)[C@@H](NC(=O)[C@H](CO)NC(=O)[C@H](CCCC)NC(=O)CNC(=O)[C@H](CCC(=O)O)NC(=O)C(C)(C)NC(=O)C(C)(C)NC(=O)[C@@H](NC(=O)[C@H](CCC(N)=O)NC(=O)[C@H](C)NC(=O)[C@H](CCCNC(=N)N)NC(=O)[C@@H](NC(=O)[C@H](CCCCN)NC(=O)[C@H](CCC(=O)O)NC(=O)[C@H](CCCNC(=N)N)NC(=O)CNC(=O)[C@H](CCC(=O)O)NC(=O)[C@H](CC(C)C)NC(C)=O)C(C)C)[C@@H](C)CC)[C@@H](C)O)C(=O)O)C(=O)O)C(N)=O)C(=O)O` [compound 118] (Ac-LEGREKVRAQI[Aib][Aib]EG[Nle]STWS[Aib]RKK(Ac)[AEEA][AEEA][γGlu][γGlu]K([γGlu-Palmitoyl])-NH2) showed an Emax of 86%.
`CCCCCCCCCCCCCCCCCC(=O)N[C@@H](CCC(=O)N[C@@H](CCC(=O)N[C@@H](CCC(=O)N[C@@H](CCC(=O)N[C@@H](CCC(=O)NCCCC[C@H](NC(=O)CCOCCOCCOCCOCCNC(=O)CCOCCOCCOCCOCCNC(=O)[C@H](CCCCN)NC(=O)[C@H](CCCCN)NC(=O)[C@H](CCCCN)NC(=O)[C@H](CCCNC(=N)N)NC(=O)C(C)(C)NC(=O)[C@H](CO)NC(=O)[C@H](Cc1c[nH]c2ccccc12)NC(=O)[C@@H](NC(=O)[C@H](CO)NC(=O)[C@H](CCCC)NC(=O)CNC(=O)[C@H](CCC(=O)O)NC(=O)C(C)(C)NC(=O)C(C)(C)NC(=O)[C@@H](NC(=O)[C@H](CCC(N)=O)NC(=O)[C@H](C)NC(=O)[C@H](CCCNC(=N)N)NC(=O)[C@@H](NC(=O)[C@H](CCCCN)NC(=O)[C@H](CCC(=O)O)NC(=O)[C@H](CCCNC(=N)N)NC(=O)CNC(=O)[C@H](CCC(=O)O)NC(=O)[C@H](CC(C)C)NC(C)=O)C(C)C)[C@@H](C)CC)[C@@H](C)O)C(N)=O)C(=O)O)C(=O)O)C(=O)O)C(=O)O)C(=O)O` [compound 122] (Ac-LEGREKVRAQI[Aib][Aib]EG[Nle]STWS[Aib]RKKK[PEG4][PEG4]K([γGlu-γGlu-γGlu-γGlu-γGlu-Stearoyl])-NH2) showed an Emax of 93%.

From patent US10988523B2, “Modified lipidated Relaxin B chain peptides and their therapeutic use” (Sanofi, priority 2018, dated 2021)
